According to patent publication US9364482B2, “Substituted benzofuran compounds and methods of use thereof for the treatment of viral diseases” (priority 2013, dated 2016):

Columns and labels:
[1] = system: HCV replicon genotype 1a; assay: microbe, parasite or virus in culture; assay type: cell-based, hepatitis C virus (HCV); settings: Hepatitis C virus, 96 h, read-out: 1a IC50 (nM)
[2] = system: HCV replicon genotype 1b; assay: microbe, parasite or virus in culture; assay type: cell-based, hepatitis C virus (HCV); settings: Hepatitis C virus, 96 h, read-out: 1b IC50 (nM)

Row | SMILES | IC50 [1] | IC50 [2]
1 | CNC(=O)c1c(-c2ccc(F)cc2)oc2cc(N(C)S(C)(=O)=O)c(-c3cnc4ncn(Cc5ccc(F)cc5)c(=O)c4c3)cc12 [Compound 24] | 2.59 nM | 2.57 nM
2 | CNC(=O)c1c(-c2ccc(F)cc2)oc2cc(N(C)S(C)(=O)=O)c(-c3cnc4ncn(-c5cccc(F)c5)c(=O)c4c3)cc12 [Compound 23] | 3.98 nM | 3.24 nM
3 | CNC(=O)c1c(-c2ccc(F)cc2)oc2cc(N(C)S(C)(=O)=O)c(-c3ccc4nc(C)n(Cc5ccc(F)cc5)c(=O)c4c3)cc12 [Compound 55, 5-[3-(4-fluorobenzyl)-2-methyl-4-oxo-3,4-dihydroquinazolin-6-yl]-2-(4-fluorophenyl)-N-methyl-6-[methyl(methylsulfonyl)amino]-1-benzofuran-3-carboxamide] | 1.93 nM | 2.42 nM
4 | CNC(=O)c1c(-c2ccc(F)cc2)oc2cc(N(C)S(C)(=O)=O)c(-c3ccc4nc(C)n([C@H](CCO)c5ccc(F)cc5)c(=O)c4n3)cc12 [Compound 66, (R)-2-(4-fluorophenyl)-5-(3-(1-(4-fluorophenyl)-3-hydroxypropyl)-2-methyl-4-oxo-3,4-dihydropyrido[3,2-d]pyrimidin-6-yl)-N-methyl-6-(N-methylmethylsulfonamido)benzofuran-3-carboxamide] | 7.29 nM | 4.06 nM
5 | CNC(=O)c1c(-c2ccc(F)cc2)oc2cc(N(C)S(C)(=O)=O)c(-c3ccc4ncn(Cc5ccc(F)cc5OC)c(=O)c4c3)cc12 [Compound 51, 5-[3-(4-fluoro-2-methoxybenzyl)-4-oxo-3,4-dihydroquinazolin-6-yl]-2-(4-fluorophenyl)-N-methyl-6-[methyl(methylsulfonyl)amino]-1-benzofuran-3-carboxamide] | 8.98 nM | 2.35 nM
6 | CNC(=O)c1c(-c2ccc(F)cc2)oc2cc(N(C)S(C)(=O)=O)c(-c3ccc4c(n3)C(=O)N(Cc3ccc(C#N)cc3)CO4)cc12 [Compound 9] | 8.03 nM | 3.91 nM
7 | CNC(=O)c1c(-c2ccc(F)cc2)oc2cc(N(C)S(C)(=O)=O)c(-c3ccc4c(n3)C(=O)N(Cc3ccc(F)cc3)CC4)cc12 [Compound 36, 5-(7-(4-fluorobenzyl)-8-oxo-5,6,7,8-tetrahydro-1,7-naphthyridin-2-yl)-2-(4-fluorophenyl)-N-methyl-6-(N-methylmethylsulfonamido)benzofuran-3-carboxamide] | 1.08 nM | 0.527 nM
8 | CNC(=O)c1c(-c2ccc(F)cc2)oc2cc(N(C)S(C)(=O)=O)c(-c3ccc4nc(CNC(C)=O)n(Cc5ccc(F)cc5)c(=O)c4c3)cc12 [Compound 54, 5-{2-[(acetylamino)methyl]-3-(4-fluorobenzyl)-4-oxo-3,4-dihydroquinazolin-6-yl}-2-(4-fluorophenyl)-N-methyl-6-[methyl(methylsulfonyl)amino]-1-benzofuran-3-carboxamide] | 2.34 nM | 2.73 nM
9 | CNC(=O)c1c(-c2ccc(F)cc2)oc2cc(N(C)S(C)(=O)=O)c(-c3ccc4nnn([C@H](COC)c5ccc(F)cc5)c(=O)c4c3)cc12 [Compound 39, (S)-2-(4-fluorophenyl)-5-(3-(1-(4-fluorophenyl)-2-methoxyethyl)-4-oxo-3,4-dihydrobenzo[d][1,2,3]triazin-6-yl)-N-methyl-6-(N-methylmethylsulfonamido)benzofuran-3-carboxamide] | 4.04 nM | 9.27 nM
10 | CNC(=O)c1c(-c2ccc(F)cc2)oc2cc(N(C)S(C)(=O)=O)c(-c3ccc4ncn(Cc5ccc(F)cn5)c(=O)c4c3)cc12 [Compound 52, 2-(4-fluorophenyl)-5-{3-[(5-fluoropyridin-2-yl)methyl]-4-oxo-3,4-dihydroquinazolin-6-yl}-N-methyl-6-[methyl(methylsulfonyl)amino]-1-benzofuran-3-carboxamide] | 6.37 nM | 2.11 nM
11 | CNC(=O)c1c(-c2ccc(F)cc2)oc2cc(N(C)S(C)(=O)=O)c(-c3cnc4c(c3)C(=O)NC(C3CC3)N4)cc12 (stereo not shown) [Compound 16] | 128 nM | 39.2 nM
12 | CNC(=O)c1c(-c2ccc(F)cc2)oc2cc(N(C)S(C)(=O)=O)c(-c3ccc4nc(C)n(Cc5ccc(F)cc5F)c(=O)c4n3)cc12 [Compound 64, 5-(3-(2,4-difluorobenzyl)-2-methyl-4-oxo-3,4-dihydropyrido[3,2-d]pyrimidin-6-yl)-2-(4-fluorophenyl)-N-methyl-6-(N-methylmethylsulfonamido)benzofuran-3-carboxamide] | 4.12 nM | 3.63 nM
13 | CNC(=O)c1c(-c2ccc(F)cc2)oc2cc(N(C)S(C)(=O)=O)c(-c3ccc4nnn(Cc5ccccc5)c(=O)c4c3)cc12 [Compound 42, 5-(3-benzyl-4-oxo-3,4-dihydro-1,2,3-benzotriazin-6-yl)-2-(4-fluorophenyl)-N-methyl-6-[methyl(methylsulfonyl)amino]-1-benzofuran-3-carboxamide] | 9.48 nM | 9.55 nM
14 | CNC(=O)c1c(-c2ccc(F)cc2)oc2cc(N(C)S(C)(=O)=O)c(-c3ccc4nc(C)n(Cc5ccc(F)cc5OC)c(=O)c4n3)cc12 [Compound 63, 5-(3-(4-fluoro-2-methoxybenzyl)-2-methyl-4-oxo-3,4-dihydropyrido[3,2-d]pyrimidin-6-yl)-2-(4-fluorophenyl)-N-methyl-6-(N-methylmethylsulfonamido)benzofuran-3-carboxamide] | 23.7 nM | 9 nM
15 | CNC(=O)c1c(-c2ccc(F)cc2)oc2cc(N(C)S(C)(=O)=O)c(-c3ccc4nnn([C@H](CO)c5ccc(F)cc5)c(=O)c4c3)cc12 [Compound 40, 2-(4-fluorophenyl)-5-{3-[(1S)-1-(4-fluorophenyl)-2-hydroxyethyl]-4-oxo-3,4-dihydro-1,2,3-benzotriazin-6-yl}-N-methyl-6-[methyl(methylsulfonyl)amino]-1-benzofuran-3-carboxamide] | 6.19 nM | 9.03 nM
16 | CNC(=O)c1c(-c2ccc(F)cc2)oc2cc(N(C)S(C)(=O)=O)c(-c3ccc4c(n3)C(=O)N(Cc3ccccc3)CO4)cc12 [Compound 1, 5-(3-benzyl-4-oxo-3,4-dihydro-2H-pyrido[2,3-e][1,3]oxazin-6-yl)-2-(4-fluorophenyl)-N-methyl-6-(N-methylmethylsulfonamido)benzofuran-3-carboxamide] | 3.22 nM | 2.44 nM
17 | CNC(=O)c1c(-c2ccc(F)cc2)oc2cc(N(C)S(C)(=O)=O)c(-c3ccc4c(n3)C(=O)N(Cc3ccccc3F)CO4)cc12 [Compound 8] | 5.87 nM | 2.62 nM
18 | CNC(=O)c1c(-c2ccc(F)cc2)oc2cc(N(C)S(C)(=O)=O)c(-c3cc4c(=O)n(Cc5ccc(F)cc5)nnc4cc3C)cc12 [Compound 72, 5-[3-(4-fluorobenzyl)-7-methyl-4-oxo-3,4-dihydro-1,2,3-benzotriazin-6-yl]-2-(4-fluorophenyl)-N-methyl-6-[methyl(methylsulfonyl)amino]-1-benzofuran-3-carboxamide] | 8.62 nM | 6.47 nM
19 | CNC(=O)c1c(-c2ccc(F)cc2)oc2ccc(-c3ccc4c(n3)C(=O)N(C(C)(C)c3ccc(F)cc3)CO4)cc12 [Compound 33, 2-(4-fluorophenyl)-5-(3-(2-(4-fluorophenyl)propan-2-yl)-4-oxo-3,4-dihydro-2H-pyrido[2,3-e][1,3]oxazin-6-yl)-N-methylbenzofuran-3-carboxamide] | 708 nM | 1690 nM
20 | CNC(=O)c1c(-c2ccc(F)cc2)oc2cc(N(C)S(C)(=O)=O)c(-c3cc(C)c4nnn(Cc5ccc(F)cc5)c(=O)c4c3)cc12 [Compound 74, 5-[3-(4-fluorobenzyl)-8-methyl-4-oxo-3,4-dihydro-1,2,3-benzotriazin-6-yl]-2-(4-fluorophenyl)-N-methyl-6-[methyl(methylsulfonyl)amino]-1-benzofuran-3-carboxamide] | 11.9 nM | 7.08 nM
21 | CNC(=O)c1c(-c2ccc(F)cc2)oc2cc(N(C)S(C)(=O)=O)c(-c3cc(OC)c4nnn(Cc5ccc(F)cc5)c(=O)c4c3)cc12 [Compound 71, 5-[3-(4-fluorobenzyl)-8-methoxy-4-oxo-3,4-dihydro-1,2,3-benzotriazin-6-yl]-2-(4-fluorophenyl)-N-methyl-6-[methyl(methylsulfonyl)amino]-1-benzofuran-3-carboxamide] | 3.49 nM | 0.782 nM
22 | CNC(=O)c1c(-c2ccc(F)cc2)oc2cc(N(C)S(C)(=O)=O)c(-c3cc(OC)c4nc(C)n(Cc5ccc(F)cc5)c(=O)c4c3)cc12 [Compound 69, 5-(3-(4-fluorobenzyl)-8-methoxy-2-methyl-4-oxo-3,4-dihydroquinazolin-6-yl)-2-(4-fluorophenyl)-N-methyl-6-(N-methylmethylsulfonamido)benzofuran-3-carboxamide] | 6.64 nM | 10.1 nM
23 | CNC(=O)c1c(-c2ccc(F)cc2)oc2cc(N(C)S(C)(=O)=O)c(-c3ccc4nc(COC)n(Cc5ccc(F)cc5)c(=O)c4c3)cc12 [Compound 53, 5-(3-(4-fluorobenzyl)-2-(methoxymethyl)-4-oxo-3,4-dihydroquinazolin-6-yl)-2-(4-fluorophenyl)-N-methyl-6-(N-methylmethylsulfonamido)benzofuran-3-carboxamide] | 2.57 nM | 2.45 nM
24 | CNC(=O)c1c(-c2ccc(F)cc2)oc2cc(N(C)S(C)(=O)=O)c(-c3ccc4c(n3)C(=O)N(c3ccc(F)cc3)CO4)cc12 [Compound 2] | 24.8 nM | 3.34 nM
25 | CNC(=O)c1c(-c2ccc(F)cc2)oc2cc(N(C)S(C)(=O)=O)c(-c3ccc4nnn(Cc5ccc(F)cn5)c(=O)c4c3)cc12 [Compound 48, 2-(4-fluorophenyl)-5-{3-[(5-fluoropyridin-2-yl)methyl]-4-oxo-3,4-dihydro-1,2,3-benzotriazin-6-yl}-N-methyl-6-[methyl(methylsulfonyl)amino]-1-benzofuran-3-carboxamide] | 6.93 nM | 5.97 nM
26 | CNC(=O)c1c(-c2ccc(F)cc2)oc2cc(N(C)S(C)(=O)=O)c(-c3ccc4nnn([C@H](C)c5ccc(F)cc5)c(=O)c4c3)cc12 [Compound 46, 2-(4-fluorophenyl)-5-{3-[(1R)-1-(4-fluorophenyl)ethyl]-4-oxo-3,4-dihydro-1,2,3-benzotriazin-6-yl}-N-methyl-6-[methyl(methylsulfonyl)amino]-1-benzofuran-3-carboxamide] | 7.65 nM | 10.2 nM
